From patent US20240336654A1, “ANTIMICROBIAL PEPTIDOMIMETICS” (SPEXIS AG, priority 2021, published 2024)
Where a SMILES comes first, the peptide text is derived from it. Bridges are numbered along the chain shown (N, C = ends). [ ]: non-standard residue; d: D form. The star is where a group is joined. Val(Nα-amidino) = CC(C)[C@H](NC(=N)N)C(=O)*; dDab(iPr) = CC(C)NCC[C@@H](N)C(=O)O; Dab(iPr) = CC(C)NCC[C@H](N)C(=O)O; Hyp = O=C(O)[C@@H]1C[C@@H](O)CN1; dCit = NC(=O)NCCC[C@@H](N)C(=O)O; Pen = CC(C)(S)[C@H](N)C(=O)O; ΔPro = O=C(O)[C@@H]1C=CCN1; dDab = NCC[C@@H](N)C(=O)O; Dab = NCC[C@H](N)C(=O)O

Experiments:
Format in all cases: cell-based
[1] = test system: Klebsiella pneumoniae SSI3010; details: SSI3010
Description: (§1) Lyophilized peptides were weighed on a Microbalance (Mettler MT5) and dissolved in sterile water to a final concentration of 1 mg/mL. Stock solutions were kept at +4° C., light protected.
(§2) The selective antimicrobial activities of the peptides were determined in 96-well plates (Greiner, polystyrene) by the standard CLSI broth microdilution method (Clinical and Laboratory Standards Institute. Methods for Dilution Antimicrobial Susceptibility Tests for Bacteria That Grow Aerobically; Approved Standard-Ninth Edition. CLSI document M07-A9 (ISBN 1-56238-783-9 [Print]; ISBN 1-56238-784-7 [Electronic]). Clinical and Laboratory Standards Institute, 950 West Valley Road, Suite 2500, Wayne, Pennsylvania 19087, USA, 2012) with slight modifications.
(§3) Colonies of the microorganisms were diluted in saline (0.85%, NaCl) and adjusted using a McFarland reader (bioMérieux SA, Marcy-l'Etoile, France) to 0.5 McFarland standard. Subsequently, the bacterial suspension was diluted in Mueller-Hinton II (MHII, cation adjusted) broth to give approximately 5×10^5 colony forming units (CFU/mL).
(§4) Inocula of the microorganisms were diluted into Mueller-Hinton II (MH, cation adjusted) broth and compared with a 0.5 McFarland standard to give appr. 10^6 colony forming units (CFU)/mL. Aliquots (90 μl) of inoculate were added to 10 μl of water+P-80 (Polysorbate 80, 0.002% final concentration) containing the peptide in serial two-fold dilutions at 10 fold final concentration. The following microorganisms were used to determine antibiotic selectivity of the peptides: Escherichia coli ATCC 25922, Escherichia coli MCR-1 Af 45 and Klebsiella pneumoniae SSI3010. Antimicrobial activities of the peptides were expressed as the minimal inhibitory concentration (MIC) in μg/mL at which no visible growth was observed after 18-20 hours of incubation at 35° C.

[2] = test system: Escherichia coli ATCC 25922; details: ATCC 25922
Description: as §1, §2, §3, §4

[3] = test system: Escherichia coli MCR-1 Af 45; details: MCR-1 Af 45
Description: as §1, §2, §3, §4

[4] = test system: human red blood cells (hRBC); details: red cells of human, 1 h, 200 μg/mL
Description: Lyophilized peptides were weighed on a Microbalance (Mettler MT5) and dissolved in sterile water to a final concentration of 1 mg/mL. Stock solutions were kept at +4° C., light protected. The peptides were tested for their hemolytic activity against human red blood cells (hRBC). Fresh hRBC were washed three times with phosphate buffered saline (PBS) and centrifuged for 5 min at 3000×g. Compounds (200 μg/mL) were incubated with 20% hRBC (v/v) for 1 h at 37° C. and shaking at 300 rpm. A value of 0% and 100% cell lyses, respectively, was determined by incubation of hRBC in the presence of PBS and 2.5% Triton X-100 in H2O, respectively. The samples were centrifuged, the supernatants were 8-fold diluted in PBS buffer and the optical densities (OD) were measured at 540 nm. The 100% lyses value (OD540H2O) gave an OD540 of approximately 0.5-1.0. Percent hemolysis was calculated as follows: (OD540peptide/OD540H2O)×100%.

| Klebsiella pneumoniae SSI3010 MIC [1] | Escherichia coli ATCC 25922 MIC [2] | Escherichia coli MCR-1 Af45 MIC [3] | Compound | Hemolysis at 0.2 g/L [4] |
| --- | --- | --- | --- | --- |
| 0.5 µg/mL | 0.125 µg/mL | 0.125 µg/mL | CC[C@H](C)[C@H](NC(=O)[C@@H]1C[C@@H](O)CN1C(=O)[C@@H](NC(=N)N)C(C)C)C(=O)N[C@@H]1C(=O)N[C@@H](Cc2ccc(O)cc2)C(=O)N[C@@H](CCN)C(=O)N[C@@H](CC(N)=O)C(=O)N[C@@H](CCCNC(=N)N)C(=O)N[C@@H](CCN)C(=O)N[C@@H]([C@@H](C)O)C(=O)N[C@H](CCN)C(=O)N[C@@H](CCCCN)C(=O)N[C@@H]([C@@H](C)O)C(=O)N[C@@H](CCN)C(=O)N[C@H](C(=O)N[C@@H](Cc2ccc(O)cc2)C(=O)O)CSSC1(C)C [Example 101, Gua-Val-Hyp-Ile-Pen-Tyr-Dab-Asn-Arg-Dab-Thr-^DDab-Lys-Thr-Dab-Cys-Tyr] ({Val(Nα-amidino)}-[Hyp]I[Pen]Y[Dab]NR[Dab]T[dDab]KT[Dab]CY-OH; disulfide 3-14) | <1% |
| 0.0625 µg/mL | 0.0625 µg/mL | 0.0625 µg/mL | CC[C@H](C)[C@H](NC(=O)[C@@H]1C[C@@H](O)CN1C(=O)[C@@H](NC(=N)N)C(C)C)C(=O)N[C@@H]1C(=O)N[C@@H](Cc2ccc(O)cc2)C(=O)N[C@@H](CCN)C(=O)N[C@@H](CC(N)=O)C(=O)N[C@@H](CCCNC(=N)N)C(=O)N[C@@H](CCN)C(=O)N[C@@H]([C@@H](C)O)C(=O)N[C@H](CCN)C(=O)N[C@@H](CCCCN)C(=O)N[C@@H](CO)C(=O)N[C@@H](CCN)C(=O)N[C@H](C(=O)N[C@@H](Cc2ccc(O)cc2)C(=O)O)CSSC1(C)C [Example 69, Gua-Val-Hyp-Ile-Pen-Tyr-Dab-Asn-Arg-Dab-Thr-^DDab-Lys-Ser-Dab-Cys-Tyr] ({Val(Nα-amidino)}-[Hyp]I[Pen]Y[Dab]NR[Dab]T[dDab]KS[Dab]CY-OH; disulfide 3-14) | <1% |
| 0.5 µg/mL | 0.5 µg/mL | 0.5 µg/mL | CC[C@H](C)[C@H](NC(=O)[C@@H]1C[C@@H](O)CN1C(=O)[C@@H](N)C(C)C)C(=O)N[C@@H]1C(=O)N[C@@H](Cc2ccc(O)cc2)C(=O)N[C@@H](CO)C(=O)N[C@@H](CC(N)=O)C(=O)N[C@@H](CCCNC(=N)N)C(=O)N[C@@H](CCN)C(=O)N[C@@H]([C@@H](C)O)C(=O)N[C@H](CCCNC(N)=O)C(=O)N[C@@H](CCCCN)C(=O)N[C@@H](CCN)C(=O)N[C@@H](CCN)C(=O)N[C@H](C(=O)N[C@@H](Cc2ccc(O)cc2)C(=O)O)CSSC1(C)C [Example 37, Val-Hyp-Ile-Pen-Tyr-Ser-Asn-Arg-Dab-Thr-^DCit-Lys-Dab-Dab-Cys-Tyr] (H-V[Hyp]I[Pen]YSNR[Dab]T[dCit]K[Dab][Dab]CY-OH; disulfide 4-15) | <1% |
| 0.5 µg/mL | 0.25 µg/mL | 0.125 µg/mL | CC[C@H](C)[C@H](NC(=O)[C@@H]1C[C@@H](O)CN1C(=O)[C@@H](N)C(C)C)C(=O)N[C@@H]1C(=O)N[C@@H](Cc2ccc(O)cc2)C(=O)N[C@@H](CO)C(=O)N[C@@H](CC(N)=O)C(=O)N[C@@H](CCCNC(=N)N)C(=O)N[C@H](CCN)C(=O)N[C@@H]([C@@H](C)O)C(=O)N[C@H](CCN)C(=O)N[C@@H](CCCCN)C(=O)N[C@@H](CCN)C(=O)N[C@@H](CCN)C(=O)N[C@H](C(=O)N[C@@H](Cc2ccc(O)cc2)C(=O)O)CSSC1(C)C [Example 26, Val-Hyp-Ile-Pen-Tyr-Ser-Asn-Arg-^DDab-Thr-^DDab-Lys-Dab-Dab-Cys-Tyr] (H-V[Hyp]I[Pen]YSNR[dDab]T[dDab]K[Dab][Dab]CY-OH; disulfide 4-15) | <1% |
| 0.25 µg/mL | 0.125 µg/mL | 0.0625 µg/mL | CC[C@H](C)[C@H](NC(=O)[C@@H]1C[C@@H](O)CN1C(=O)[C@@H](N)C(C)C)C(=O)N[C@@H]1C(=O)N[C@@H](Cc2ccc(O)cc2)C(=O)N[C@@H](CO)C(=O)N[C@@H](CC(N)=O)C(=O)N[C@@H](CCCNC(=N)N)C(=O)N[C@@H](CCN)C(=O)N[C@@H]([C@@H](C)O)C(=O)N[C@H](CCN)C(=O)N[C@@H](CCCCN)C(=O)N[C@@H](CCN)C(=O)N[C@@H](CCNC(C)C)C(=O)N[C@H](C(=O)N[C@@H](Cc2ccc(O)cc2)C(=O)O)CSSC1(C)C [Example 63, Val-Hyp-Ile-Pen-Tyr-Ser-Asn-Arg-Dab-Thr-^DDab-Lys-Dab-Dab(iPr)-Cys-Tyr] (H-V[Hyp]I[Pen]YSNR[Dab]T[dDab]K[Dab][Dab(iPr)]CY-OH; disulfide 4-15) | <1% |

Second part, the compound before the results:

| Compound | Klebsiella pneumoniae SSI3010 MIC [1] | Escherichia coli ATCC 25922 MIC [2] | Escherichia coli MCR-1 Af45 MIC [3] | Hemolysis at 0.2 g/L [4] |
| --- | --- | --- | --- | --- |
| CC[C@H](C)[C@H](NC(=O)[C@@H]1C[C@@H](O)CN1C(=O)[C@@H](NC(=N)N)C(C)C)C(=O)N[C@@H]1C(=O)N[C@@H](Cc2ccc(O)cc2)C(=O)N[C@@H]([C@@H](C)O)C(=O)N[C@@H](CC(N)=O)C(=O)N[C@@H](CCCNC(=N)N)C(=O)N[C@@H](CCNC(C)C)C(=O)N[C@@H]([C@@H](C)O)C(=O)N[C@H](CCN)C(=O)N[C@@H](CCCCN)C(=O)N[C@@H](CCN)C(=O)N[C@@H](CCN)C(=O)N[C@H](C(=O)N[C@@H](Cc2ccc(O)cc2)C(=O)O)CSSC1(C)C [Example 92, Gua-Val-Hyp-Ile-Pen-Tyr-Thr-Asn-Arg-Dab(iPr)-Thr-^DDab-Lys-Dab-Dab-Cys-Tyr] ({Val(Nα-amidino)}-[Hyp]I[Pen]YTNR[Dab(iPr)]T[dDab]K[Dab][Dab]CY-OH; disulfide 3-14) | 0.25 µg/mL | 0.0625 µg/mL | 0.0625 µg/mL | <1% |
| CC[C@H](C)[C@H](NC(=O)[C@@H]1C=CCN1C(=O)[C@@H](NC(=N)N)C(C)C)C(=O)N[C@@H]1C(=O)N[C@@H](Cc2ccc(O)cc2)C(=O)N[C@@H]([C@@H](C)O)C(=O)N[C@@H](CC(N)=O)C(=O)N[C@@H](CCCNC(=N)N)C(=O)N[C@@H](CCN)C(=O)N[C@@H]([C@@H](C)O)C(=O)N[C@H](CCN)C(=O)N[C@@H](CO)C(=O)N[C@@H](CCN)C(=O)N[C@@H](CCN)C(=O)N[C@H](C(=O)N[C@@H](Cc2ccc(O)cc2)C(=O)O)CSSC1(C)C [Example 111, Gua-Val-Pro(3,4dehydro)-Ile-Pen-Tyr-Thr-Asn-Arg-Dab-Thr-^DDab-Ser-Dab-Dab-Cys-Tyr] ({Val(Nα-amidino)}-[ΔPro]I[Pen]YTNR[Dab]T[dDab]S[Dab][Dab]CY-OH; disulfide 3-14) | 0.125 µg/mL | 0.125 µg/mL | 0.0625 µg/mL | <1% |
| CC[C@H](C)[C@H](NC(=O)[C@@H]1C[C@@H](O)CN1C(=O)[C@@H](NC(=N)N)C(C)C)C(=O)N[C@@H]1C(=O)N[C@@H](Cc2ccc(O)cc2)C(=O)N[C@@H]([C@@H](C)O)C(=O)N[C@@H](CC(N)=O)C(=O)N[C@@H](CCCNC(=N)N)C(=O)N[C@@H](CCN)C(=O)N[C@@H]([C@@H](C)O)C(=O)N[C@H](CCNC(C)C)C(=O)N[C@@H](CO)C(=O)N[C@@H](CCN)C(=O)N[C@@H](CCN)C(=O)N[C@H](C(=O)N[C@@H](Cc2ccc(O)cc2)C(=O)O)CSSC1(C)C [Example 96, Gua-Val-Hyp-Ile-Pen-Tyr-Thr-Asn-Arg-Dab-Thr-^DDab(iPr)-Ser-Dab-Dab-Cys-Tyr] ({Val(Nα-amidino)}-[Hyp]I[Pen]YTNR[Dab]T[dDab(iPr)]S[Dab][Dab]CY-OH; disulfide 3-14) | 0.25 µg/mL | 0.125 µg/mL | 0.125 µg/mL | <1% |
